{"source": "patent US10401295B2", "about": "“Composition and method for monitoring lipid” (Memorial Sloan-Kettering Cancer Center, priority 2014, dated 2019)", "key": {"[1]": {"tested_on": "RAW 264.7 macrophages", "test": "CNOR emission in RAW 264.7 macrophages (lysosomal lipid accumulation)", "format": "cell-based", "conditions": "for blue shift compared with control macrophages: DMEM+10% FBS, U18666A, 10 uM Lalistat", "procedure": "A DNA-encapsulated nanotube complex, undergoing a continuous solvatochromic shifting response, spatially and temporally tracked endosomal maturation in live HeLa cells. Separated (8,6) nanotubes encapsulated by an ss(GT)6 oligonucleotide, with a median length of 236 nm, were incubated with HeLa cells at 0.25 mg/L for 30 minutes before rinsing and replacing with fresh media. The wavelength distribution of the nanotube complex in endosomes, measured immediately after uptake, was centered at 1200.7±0.4 nm, near the bulk value observed in water. In lysosomes, after 6 hours post-incubation, the wavelength distribution broadened before blue-shifting to 1194.3±0.7 nm at the 24-hour timepoint (FIG. 2, panel A). A small red-shifted nanotube population, with a mean wavelength of 1205 nm, appeared at the 6-hour time point but disappeared by 24 hours. The relative mean wavelength of each emissive region of interest (ROI) was laid over a transmitted light image of the cells, resulting in spatial visualization of the spectral distribution (FIG. 2, panel B). […] The interaction of GT6-(8,6) nanotubes with RAW 264.7 macrophages was characterized, by incubating 2 pM of nanotubes in cell media for 30 minutes at 37° C. Under these conditions, the majority of cells efficiently took up nanotubes via energy-dependent mechanisms.\nRAW macrophages were incubated in lipoprotein depleted serum (LPDS) for 24 hours. Incubation in these conditions reduces the lipid content of the lysosomes and increases the number of surface receptors for acetylated LDL (Ac-LDL) on the cell surface. To induce lipid accumulation in the lysosomes, Ac-LDL and U18666A (a cholesterol transport inhibitor) were introduced to cells incubating in the lipoprotein depleted serum. […]\nThe reporter detected Wolman's disease, a lysosomal storage disorder characterized by the accumulation of esterified cholesterol in the lysosomes due to a non-functioning lysosomal acid lipase (LAL). […]"}, "[2]": {"tested_on": "HeLa cells", "test": "hyperspectral imaging of CNOR emission in live HeLa cells", "format": "cell-based", "conditions": "for effect on blue-shifting of CNOR emission: HeLa cells, relative to control", "procedure": "Cell Lines and Cell Culture Procedures: HeLa CCL-2 cells (ATCC, Manassas, Va., US) were grown under standard incubation conditions at 37° C. and 5% CO2 in sterile-filtered DMEM with 10% heat-inactivated FBS, 2.5% HEPES, 1% Glutamine, and 1% Penicillin/Streptomycin (all Gibco). For studies performed with homozygous mutant NPC, compound mutant heterozygote NPC, or wild-type fibroblasts, the cell lines GM18453, GM03123 or GM05659 (Coriell, Camden, N.J., US), respectively, were cultured in MEM with 10% FBS, 2.5% HEPES, and 1% Glutamine. Cells were plated on glass-bottom petri dishes, or lysine-covered glass dishes (MatTek) for fibroblasts. Unpurified SWCNT were incubated at 1 mg/L and separated SWCNT were incubated at 0.25 mg/L in media with cells for 30 minutes at 37° C. Depending on the experiment, cells were imaged immediately, or trypsinized (Gibco) and re-plated on a fresh glass-bottom petri dish followed by hyperspectral imaging. Pharmacological treatments on HeLa cells were performed with Nocodazole (Sigma, 10 μg/mL added after SWCNT incubation) or U18666A (Sigma, 3 μg/mL added 6 hours prior to SWCNT incubation). Fibroblast cells were incubated with hydroxypropyl-β-cyclodextrin (Sigma, 100 μM) 6 hours prior to SWCNT incubation. Cells were incubated for 30 minutes with 0.25 mg/L of the SWCNTs before rinsing and replacing with fresh media. Hyperspectral imaging was conducted immediately afterwards and 24 hours later. A DNA-encapsulated nanotube complex, undergoing a continuous solvatochromic shifting response, spatially and temporally tracked endosomal maturation in live HeLa cells. Separated (8,6) nanotubes encapsulated by an ss(GT)6 oligonucleotide, with a median length of 236 nm, were incubated with HeLa cells at 0.25 mg/L for 30 minutes before rinsing and replacing with fresh media. The wavelength distribution of the nanotube complex in endosomes, measured immediately after uptake, was centered at 1200.7±0.4 nm, near the bulk value observed in water. In lysosomes, after 6 hours post-incubation, the wavelength distribution broadened before blue-shifting to 1194.3±0.7 nm at the 24-hour timepoint (FIG. 2, panel A). A small red-shifted nanotube population, with a mean wavelength of 1205 nm, appeared at the 6-hour time point but disappeared by 24 hours. The relative mean wavelength of each emissive region of interest (ROI) was laid over a transmitted light image of the cells, resulting in spatial visualization of the spectral distribution (FIG. 2, panel B). […] The interaction of GT6-(8,6) nanotubes with RAW 264.7 macrophages was characterized, by incubating 2 pM of nanotubes in cell media for 30 minutes at 37° C. Under these conditions, the majority of cells efficiently took up nanotubes via energy-dependent mechanisms."}, "[3]": {"tested_on": "NPC fibroblasts (homozygous mutation of the NPC1 gene)", "test": "CNOR emission in homozygous NPC patient fibroblasts", "format": "cell-based, human", "procedure": "(§1) Cell Lines and Cell Culture Procedures: HeLa CCL-2 cells (ATCC, Manassas, Va., US) were grown under standard incubation conditions at 37° C. and 5% CO2 in sterile-filtered DMEM with 10% heat-inactivated FBS, 2.5% HEPES, 1% Glutamine, and 1% Penicillin/Streptomycin (all Gibco). For studies performed with homozygous mutant NPC, compound mutant heterozygote NPC, or wild-type fibroblasts, the cell lines GM18453, GM03123 or GM05659 (Coriell, Camden, N.J., US), respectively, were cultured in MEM with 10% FBS, 2.5% HEPES, and 1% Glutamine. Cells were plated on glass-bottom petri dishes, or lysine-covered glass dishes (MatTek) for fibroblasts. Unpurified SWCNT were incubated at 1 mg/L and separated SWCNT were incubated at 0.25 mg/L in media with cells for 30 minutes at 37° C. Depending on the experiment, cells were imaged immediately, or trypsinized (Gibco) and re-plated on a fresh glass-bottom petri dish followed by hyperspectral imaging.\nPharmacological treatments on HeLa cells were performed with Nocodazole (Sigma, 10 μg/mL added after SWCNT incubation) or U18666A (Sigma, 3 μg/mL added 6 hours prior to SWCNT incubation). […]\nNiemann Pick Type-C(NPC) is a lysosomal storage disorder characterized by massive accumulation of unesterified cholesterol in the lysosomes of patient fibroblasts. […]"}, "[4]": {"tested_on": "NPC1 fibroblasts (compound heterozygous mutations of the NPC1 gene)", "test": "reporter emission in compound heterozygous NPC1 patient fibroblasts", "format": "cell-based, human", "procedure": "as §1\nIn a similar procedure to the experiment with homozygous NPC cells, fibroblasts with the compound heterozygous mutation of the NPC1 gene were plated on a poly-d-lysine-coated glass-bottomed petri-dish and imaged at different time points after an initial 30 minute incubation with the SWCNTs. Histograms of the wavelength distribution profile of the SWCNTs were obtained. […]"}, "[5]": {"tested_on": "HeLa cells", "test": "filipin staining of unesterified cholesterol in HeLa cells", "format": "cell-based", "conditions": "fixed HeLa cells, versus control", "description": "Filipin staining was conducted by fixing cells with 1.5% paraformaldehyde in PBS for 20 minutes. Cells were then labeled with 50 μg/mL filipin for 45 minutes. After washing, filipin images were acquired using 350/50 nm excitation and 460/50 mm emission filters with a 400 nm dichroic long-pass filter (Olympus)."}}}
{"molecule": "Lalistat", "values": [{"measurement": "blue shift compared with control macrophages", "setting": "[1]", "value": "~8", "unit": "nm"}]}
{"molecule": "Cl.N", "note": "[NH4Cl]", "values": [{"measurement": "effect on CNOR emission populations", "setting": "[2]; 50 mM added 6 hours after incubation with the CNOR", "value": "blue-shifted population remained unaffected while the red-shifted population was depleted"}]}
{"molecule": "COC(=O)Nc1nc2ccc(C(=O)c3cccs3)cc2[nH]1", "note": "[nocodazole]", "values": [{"measurement": "effect on blue-shifting of CNOR emission", "setting": "[2]", "value": "prevented the blue-shifting"}, {"measurement": "mean CNOR emission", "setting": "[2]; nocodazole 10 μg/mL, up to 24 hours after internalization, control 1194.28±0.73", "value": "1200.07±1.4", "unit": "nm"}]}
{"molecule": "hydroxypropyl-β-cyclodextrin [HPβCD]", "values": [{"measurement": "effect on CNOR blue-shift in NPC cells", "setting": "[3]; HPβCD for additional 24 hours, after imaging at 24 hours", "value": "reversal of the CNOR blue-shift"}, {"measurement": "effect of pre-treatment on CNOR fluorescence shifting in diseased cells", "setting": "[3]; pre-treatment before CNOR incubation", "value": "prevented CNOR fluorescence from shifting"}, {"measurement": "red-shift of nanotube emission", "setting": "[4]; 100 uM for 24 hours, 24 hours after nanotube addition", "value": "approximately 4 nm"}, {"measurement": "emission in pretreated NPC1 cells versus WT fibroblasts", "setting": "[4]; pre-treated 24 hours prior to nanotube addition", "value": "identical emission values"}]}
{"molecule": "CCN(CC)CCO[C@H]1CC[C@@]2(C)C(=CC[C@@H]3[C@@H]2CC[C@]2(C)C(=O)CC[C@@H]32)C1", "note": "[U18666A]", "values": [{"measurement": "further increase in blue shift than in untreated control cells", "setting": "[2]; 3 μg/mL for six hours before incubation with the CNOR, at 24 hours", "value": "3.8±0.7", "unit": "nm"}, {"measurement": "effect on blue-shifting of CNOR emission", "setting": "[2]", "value": "enhanced"}, {"measurement": "blue shift compared with control macrophages", "setting": "[1]", "value": "~8", "unit": "nm"}, {"measurement": "CNOR blue-shift in drug-treated cells relative to drug-free control", "setting": "[1]; RAW 264.7 macrophages", "value": "11.1±1.1", "unit": "nm"}, {"measurement": "intensity of filipin in the cell interior", "setting": "[5]", "value": "increased greatly"}]}
